Common to all, as to assay type: functional, cell-based
A short description of assay [1]: Antiproliferative activity against human HL60 cells after 72 hrs MTT assay. As to conditions: HL-60, 72 h.
Assay [2] can be described thus: Antiproliferative activity against human SF763 cells after 72 hrs MTT assay. As to conditions: SF763, 72 h.
The nature of assay [3]: Antiproliferative activity against human Bel7402 cells after 72 hrs MTT assay. The note with it: Bel-7402, 72 h.
Assay [4] concerns HeLa. Kind of assay: Antiproliferative activity against human HeLa cells after 72 hrs MTT assay.
Assay [5] concerns B16. Description: Antiproliferative activity against mouse B16 cells after 72 hrs MTT assay. The note with it: B16, 72 h.

Turning to `C=C(C)[C@@H]1CC[C@]2(C(=O)NCC(=O)OC)CC[C@]3(C)[C@H](CC[C@@H]4[C@@]5(C)CCC(=O)[C@@](C)(COC(C)=O)[C@@H]5CC[C@]43C)[C@@H]12`, the IC50 turned out to be 19.2 µM in assay [1]; 13.6 µM in assay [2]; 15.6 µM in assay [3]; 17.1 µM in assay [4]; 10.7 µM in assay [5].
With `C=C(C)[C@@H]1CC[C@]2(C(=O)N3CCOCC3)CC[C@]3(C)[C@H](CC[C@@H]4[C@@]5(C)CCC(=O)[C@@](C)(COC(C)=O)[C@@H]5CC[C@]43C)[C@@H]12`, the IC50 was 12.1 µM in assay [1]; 10.1 µM in assay [2]; 10.5 µM in assay [3]; 10.3 µM in assay [4]; 8.16 µM in assay [5].
In the same order, the values of `C=C(C)[C@@H]1CC[C@]2(C(=O)O)CC[C@]3(C)[C@H](CC[C@@H]4[C@@]5(C)CCC(=O)[C@@](C)(COC(C)=O)[C@@H]5CC[C@]43C)[C@@H]12` are 30.2 µM, 28.9 µM, 29.4 µM, 32.1 µM and 17.1 µM.
In the same order, the values of `C=C(C)[C@@H]1CC[C@]2(C(=O)O[C@@H]3O[C@H](CO)[C@@H](O)[C@H](O)[C@H]3O)CC[C@]3(C)[C@H](CC[C@@H]4[C@@]5(C)CCC(=O)[C@@](C)(CO)[C@@H]5CC[C@]43C)[C@@H]12` are 26.6 µM, 21.4 µM, 22.1 µM, 31 µM and 14.7 µM.
Consider `C=CCOC(=O)[C@]12CC[C@@H](C(=C)C)[C@@H]1[C@H]1CC[C@@H]3[C@@]4(C)CCC(=O)[C@@](C)(CO)[C@@H]4CC[C@@]3(C)[C@]1(C)CC2`, for which the concentration for half-maximal inhibition (IC50) in assay [1] worked out at 21.8 µM; in assay [2], 15.1 µM; in assay [3], 19 µM; in assay [4], 22.8 µM; in assay [5] it was 11.8 µM.
In the same order, the values of `C=C(C)[C@@H]1CC[C@]2(C(=O)OCc3ccc(-c4ccccc4C#N)cc3)CC[C@]3(C)[C@H](CC[C@@H]4[C@@]5(C)CCC(=O)[C@@](C)(CO)[C@@H]5CC[C@]43C)[C@@H]12` are 14.3 µM, 10.1 µM, 10.3 µM, 15.2 µM and 10 µM.
As to `C=C(C)[C@@H]1CC[C@]2(C(=O)OCC)CC[C@]3(C)[C@H](CC[C@@H]4[C@@]5(C)CCC(=O)[C@@](C)(CO)[C@@H]5CC[C@]43C)[C@@H]12`, the half-inhibitory concentration (IC50) amounted to 31.9 µM in assay [1]; 28.9 µM in assay [2]; 30.9 µM in assay [3]; 37.1 µM in assay [4]; 19.4 µM in assay [5].
Consider `C=C(C)[C@@H]1CC[C@]2(C(=O)OCC(=O)OCC)CC[C@]3(C)[C@H](CC[C@@H]4[C@@]5(C)CCC(=O)[C@@](C)(CO)[C@@H]5CC[C@]43C)[C@@H]12`, for which the IC50 is 37.1 µM in assay [1]; 24.7 µM in assay [2]; 30.7 µM in assay [3]; 40.8 µM in assay [4]; 25.7 µM in assay [5].
Regarding `C=C(C)[C@@H]1CC[C@]2(C(=O)OCc3ccccc3)CC[C@]3(C)[C@H](CC[C@@H]4[C@@]5(C)CCC(=O)[C@@](C)(CO)[C@@H]5CC[C@]43C)[C@@H]12`, the IC50 came to 23.7 µM in assay [1]; 19.5 µM in assay [2]; 20.1 µM in assay [3]; 26.1 µM in assay [4]; 14.1 µM in assay [5].

Source of the values: ChEMBL document CHEMBL3351759, “Synthesis and antitumor activity of novel 3-oxo-23-hydroxybetulinic acid derivatives” (Eur J Med Chem, 2014).
